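Method: 48-hour compound exposure of cells in 96-well plates, five concentrations, linear interpolation of endpoints. GI50 marks 50% less growth.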 Activity calls are given as the source filed them. No stated cut-off is given here; in the data, active = GI50 up to about 1.1 µM and inactive = higher.
What was measured:
Experiment in all cases: inhibition of tumour cell growth, NCI panel, 48 h
[1] = tested on: TK-10
[2] = tested on: HT-29
[3] = tested on: SK-OV-3
[4] = tested on: BT-549
[5] = tested on: SNB-19
[6] = tested on: RXF 393
[7] = tested on: EKVX
[8] = tested on: MDA-MB-435
[9] = tested on: SF-539
[10] = tested on: PC-3
[11] = tested on: NCI-H460
[12] = tested on: SK-MEL-5
[13] = tested on: OVCAR-3
[14] = tested on: CCRF-CEM
[15] = tested on: ACHN
[16] = tested on: UACC-62
[17] = tested on: OVCAR-4
[18] = tested on: NCI-H23
[19] = tested on: A498
[20] = tested on: SF-295
[21] = tested on: OVCAR-8
[22] = tested on: HCT-116
[23] = tested on: SR
[24] = tested on: NCI/ADR-RES
[25] = tested on: HOP-62
[26] = tested on: CAKI-1
[27] = tested on: U-251
[28] = tested on: MDA-MB-231
[29] = tested on: RPMI-8226
[30] = tested on: K562
[31] = tested on: T47D
[32] = tested on: M14
[33] = tested on: KM12
[34] = tested on: MDA-N
[35] = tested on: UO-31
[36] = tested on: HOP-92
[37] = tested on: HCC 2998
[38] = tested on: Hs-578T
[39] = tested on: SF-268
[40] = tested on: Malme-3M
[41] = tested on: SK-MEL-2
[42] = tested on: SN12C
[43] = tested on: NCI-H226
[44] = tested on: HCT-15
[45] = tested on: UACC-257
[46] = tested on: SW-620
[47] = tested on: LOX IMVI
[48] = tested on: COLO 205
[49] = tested on: 786-0
[50] = tested on: MOLT-4
[51] = tested on: OVCAR-5
[52] = tested on: A549
[53] = tested on: IGROV-1
[54] = tested on: NCI-H522
[55] = tested on: SNB-75
[56] = tested on: DU-145
[57] = tested on: MCF7
[58] = tested on: HL-60
[59] = tested on: SK-MEL-28

Measured: GI50

Cn1c(N=[N+]=[N-])cc(=O)n(C)c1=O
> 100 µM: [44]
inactive: [1] > 100 µM | [2] > 100 µM | [3] > 100 µM | [4] > 100 µM | [5] > 100 µM | [6] > 100 µM | [7] > 100 µM | [8] > 100 µM | [9] > 100 µM | [10] > 100 µM | [11] > 100 µM | [12] > 100 µM | [13] > 100 µM | [14] > 100 µM | [15] > 100 µM | [16] > 100 µM | [17] > 100 µM | [18] > 100 µM | [19] > 100 µM | [20] > 100 µM | [21] > 100 µM | [22] > 100 µM | [23] > 100 µM | [24] > 100 µM | [25] > 100 µM | [26] > 100 µM | [27] > 100 µM | [28] > 100 µM | [29] > 100 µM | [30] > 100 µM | [31] > 100 µM | [32] > 100 µM | [33] > 100 µM | [34] > 100 µM | [35] > 100 µM | [36] > 100 µM | [37] > 100 µM | [38] > 100 µM | [39] > 100 µM | [40] > 100 µM | [41] > 100 µM | [42] > 100 µM | [43] > 100 µM | [45] > 100 µM | [46] > 100 µM | [47] > 100 µM | [48] > 100 µM | [49] > 100 µM | [50] > 100 µM | [51] > 100 µM | [52] > 100 µM | [53] > 100 µM | [54] > 100 µM

N#Cc1c(-c2ccccc2)[nH]c2ccccc2c1=O
inactive: [1] 32.8 µM | [2] > 100 µM | [3] 26.2 µM | [4] 25.8 µM | [55] 15.1 µM | [5] 22.8 µM | [6] 30.7 µM | [7] > 100 µM | [56] > 100 µM | [8] 17.4 µM | [9] > 100 µM | [10] > 100 µM | [11] > 100 µM | [12] 66.7 µM | [13] 83.6 µM | [57] 67 µM | [14] > 100 µM | [15] > 100 µM | [16] 73.8 µM | [17] > 100 µM | [19] > 100 µM | [20] 21.8 µM | [58] 90.4 µM | [21] 97.9 µM | [22] 87.5 µM | [23] > 100 µM | [24] > 100 µM | [25] 27.7 µM | [26] > 100 µM | [28] 26.2 µM | [30] 59.4 µM | [32] > 100 µM | [33] 47.9 µM | [34] 33.4 µM | [35] > 10 µM | [36] > 100 µM | [37] > 10 µM | [59] > 100 µM | [38] 19.2 µM | [39] 35 µM | [40] 41.3 µM | [41] 39.6 µM | [42] 95.7 µM | [43] 41.6 µM | [45] > 100 µM | [46] 91 µM | [47] > 100 µM | [48] > 100 µM | [49] > 100 µM | [50] > 100 µM | [51] > 100 µM | [52] 9.59 µM | [53] 23.9 µM
62.8 µM: [44]

COC1=C[C@]2(CCC(=O)O2)[C@@H]2Cc3ccccc3[C@H](O)[C@@H]2C1=O
41.1 µM: [44]
inactive: [1] > 100 µM | [2] > 100 µM | [3] > 100 µM | [4] 49.3 µM | [5] > 100 µM | [7] > 100 µM | [8] 16.9 µM | [10] 31.2 µM | [11] 85.9 µM | [12] 17.5 µM | [13] 28.5 µM | [57] 44 µM | [14] 15.1 µM | [15] 49.2 µM | [16] 24.8 µM | [17] 43.2 µM | [18] 40.3 µM | [19] > 100 µM | [20] > 100 µM | [58] 25.7 µM | [21] 38 µM | [22] 30.5 µM | [23] 19.5 µM | [24] 97.9 µM | [25] 69.3 µM | [26] 47.6 µM | [27] 27.7 µM | [28] 34.6 µM | [29] 18.1 µM | [30] 38.4 µM | [31] 13.1 µM | [32] > 100 µM | [33] > 100 µM | [34] 15.8 µM | [35] 39.8 µM | [36] 78.3 µM | [37] > 100 µM | [59] > 100 µM | [38] > 100 µM | [39] 68.9 µM | [40] 24.5 µM | [41] 28.6 µM | [42] 47.6 µM | [43] 86.5 µM | [45] 22.1 µM | [46] 28.4 µM | [47] 28.7 µM | [48] > 100 µM | [49] 70.5 µM | [50] 17.9 µM | [51] > 100 µM | [52] > 100 µM | [53] 82.6 µM | [54] 21.7 µM

— ChEMBL document CHEMBL1201862, “PubChem BioAssay data set” (2004)
